Results reported in ChEMBL document CHEMBL4359846, “Design, synthesis, and antifibrosis evaluation of 4-(benzo-[c][1,2,5]thiadiazol-5-yl)-3(5)-(6-methyl- pyridin-2-yl)pyrazole and 3(5)-(6-methylpyridin- 2-yl)-4-(thieno-[3,2,-c]pyridin-2-yl)pyrazole derivatives” (Eur J Med Chem, 2019).
pIC50: −log10 of the molar value.

Legend:
[1] = biological target: T1, TGF-beta receptor type-1 (Homo sapiens, UniProt P36897); experiment: Inhibition of human recombinant GST-tagged ALK5 expressed in Sf9 insect cells using casein as substrate incubated for 60 mins in presence of [33P]-ATP by radiometric assay
T1 sequence (P36897 whole entry): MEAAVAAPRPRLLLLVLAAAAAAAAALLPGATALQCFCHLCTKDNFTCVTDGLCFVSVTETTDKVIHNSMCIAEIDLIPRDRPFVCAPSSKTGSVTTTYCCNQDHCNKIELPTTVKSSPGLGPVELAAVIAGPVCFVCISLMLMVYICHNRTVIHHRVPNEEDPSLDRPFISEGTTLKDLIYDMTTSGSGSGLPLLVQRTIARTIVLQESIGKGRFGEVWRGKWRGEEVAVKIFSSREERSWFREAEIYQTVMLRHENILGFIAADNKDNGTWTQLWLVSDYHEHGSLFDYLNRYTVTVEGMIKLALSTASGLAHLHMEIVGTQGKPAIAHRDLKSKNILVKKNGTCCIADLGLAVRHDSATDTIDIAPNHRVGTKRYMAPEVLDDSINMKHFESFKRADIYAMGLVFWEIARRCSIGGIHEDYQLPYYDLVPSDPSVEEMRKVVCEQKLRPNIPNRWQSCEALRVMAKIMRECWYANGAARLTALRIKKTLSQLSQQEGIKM

[2] = biological target: T2, Mitogen-activated protein kinase 14 (Homo sapiens, UniProt Q16539); experiment: Inhibition of human recombinant untagged p38alpha expressed in Escherichia coli at 10 uM using ATF2 as substrate incubated for 60 mins in presence of [33P]-ATP by radiometric assay relative to control
T2 sequence (Q16539 whole entry): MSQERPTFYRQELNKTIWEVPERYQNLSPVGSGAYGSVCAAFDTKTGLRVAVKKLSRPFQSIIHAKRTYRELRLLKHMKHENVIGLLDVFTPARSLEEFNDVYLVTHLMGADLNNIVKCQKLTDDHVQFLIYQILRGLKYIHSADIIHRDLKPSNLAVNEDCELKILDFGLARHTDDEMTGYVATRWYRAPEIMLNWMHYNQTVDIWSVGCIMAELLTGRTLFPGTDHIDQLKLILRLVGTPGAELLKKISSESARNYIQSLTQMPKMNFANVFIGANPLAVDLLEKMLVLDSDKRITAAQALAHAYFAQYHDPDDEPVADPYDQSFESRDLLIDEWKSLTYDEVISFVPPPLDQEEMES

[3] = biological target: T2, Mitogen-activated protein kinase 14; experiment: Inhibition of human recombinant untagged p38alpha expressed in Escherichia coli using ATF2 as substrate incubated for 60 mins in presence of [33P]-ATP by radiometric assay
[4] = Cytotoxicity against human LX2 cells assessed as reduction in cell viability at 4 to 100 uM incubated for 3 hrs by MTT assay; assay type: cell-based
[5] = biological target: T3, TGF-beta receptor type-1 (Homo sapiens) (UniProt P36897); experiment: Inhibition of human recombinant GST-tagged ALK5 expressed in Sf9 insect cells at 10 uM using casein as substrate incubated for 60 mins in presence of [33P]-ATP by radiometric assay relative to control
T3 sequence (whole entry): T1 sequence (P36897 whole entry)

Row | Structure (SMILES) | pIC50 [1] | inhibition [2] [%] | pIC50 [3] | Activity [4] | inhibition [5] [%]
1 | Cc1cccc(-c2nn(CC(=S)Nc3cccc(C#N)c3)cc2-c2ccc3nsnc3c2)n1 | 6.94 | 0 to 66 | < 5.00 | – | –
2 | Cc1cccc(-c2nn(CC(=O)Nc3ccccc3)cc2-c2cc3cnccc3s2)n1 | 7.41 | 0 to 66 | 5.09 | Non-Toxic | –
3 | Cc1cccc(-c2nn(CC(=S)Nc3ccccc3)cc2-c2ccc3nsnc3c2)n1 | 7.38 | 0 to 66 | 5.24 | – | –
4 | Cc1cccc(-c2nn(CC(=O)Nc3cccc(F)c3)cc2-c2cc3cnccc3s2)n1 | 6.92 | 0 to 66 | < 5.00 | – | 98 to 100
5 | Cc1cccc(-c2c(-c3cc4cnccc4s3)cnn2CC(=O)Nc2ccccc2F)n1 | – | 0 to 66 | – | – | 46 to 91
6 | Cc1cccc(-c2c(-c3cc4cnccc4s3)cnn2CC(=O)Nc2cccc(C#N)c2)n1 | – | 0 to 66 | – | – | 46 to 91
7 | Cc1cccc(-c2nn(CC(=O)Nc3ccccc3F)cc2-c2ccc3nsnc3c2)n1 | 6.77 | 0 to 66 | < 5.00 | – | 98 to 99
8 | Cc1cccc(-c2nn(CC(=O)Nc3cccc(C#N)c3)cc2-c2ccc3nsnc3c2)n1 | 6.78 | 0 to 66 | < 5.00 | – | 98 to 99
9 | Cc1cccc(-c2nn(CC(=O)Nc3cccc(F)c3)cc2-c2ccc3nsnc3c2)n1 | 7.06 | 0 to 66 | < 5.00 | – | 98 to 99
10 | Cc1cccc(-c2c(-c3ccc4nsnc4c3)cnn2CC(=O)Nc2ccccc2F)n1 | – | 0 to 66 | – | – | 52 to 98
11 | Cc1cccc(-c2nn(CC(=O)Nc3cccc(C#N)c3)cc2-c2cc3cnccc3s2)n1 | 6.64 | 0 to 66 | < 5.00 | – | 98 to 100
12 | Cc1cccc(-c2c(-c3cc4cnccc4s3)cnn2CC(=O)Nc2cccc(F)c2)n1 | – | 0 to 66 | – | – | 46 to 91
13 | Cc1cccc(-c2nn(CC(=S)Nc3cccc(F)c3)cc2-c2cc3cnccc3s2)n1 | 6.90 | 0 to 66 | < 5.00 | – | –
14 | Cc1cccc(-c2nn(CC(=S)Nc3cccc(C#N)c3)cc2-c2cc3cnccc3s2)n1 | 7.11 | 0 to 66 | 5.02 | – | –
15 | Cc1cccc(-c2nn(CC(=O)Nc3ccccc3)cc2-c2ccc3nsnc3c2)n1 | 7.52 | 0 to 66 | < 5.00 | – | 98 to 99
16 | Cc1cccc(-c2c(-c3ccc4nsnc4c3)cnn2CC(=O)Nc2ccccc2)n1 | – | 0 to 66 | – | – | 52 to 98
17 | Cc1cccc(-c2c(-c3cc4cnccc4s3)cnn2CC(=O)Nc2ccccc2)n1 | – | 0 to 66 | – | – | 46 to 91
18 | Cc1cccc(-c2nn(CC(=O)Nc3ccccc3F)cc2-c2cc3cnccc3s2)n1 | 6.51 | 0 to 66 | < 5.00 | – | 98 to 100
19 | Cc1cccc(-c2c(-c3ccc4nsnc4c3)cnn2CC(=O)Nc2cccc(C#N)c2)n1 | – | 0 to 66 | – | – | 52 to 98
20 | Cc1cccc(-c2nn(CC(=S)Nc3cccc(F)c3)cc2-c2ccc3nsnc3c2)n1 | 7.52 | 0 to 66 | 5.15 | Toxic | –
21 | Cc1cccc(-c2c(-c3ccc4nsnc4c3)cnn2CC(=O)Nc2cccc(F)c2)n1 | – | 0 to 66 | – | – | 52 to 98
22 | Cc1cccc(-c2nn(CC(=S)Nc3ccccc3F)cc2-c2ccc3nsnc3c2)n1 | 7.26 | 0 to 66 | 5.42 | – | –
